Patent US9980943B2, “Methods of treating muscular dystrophy” (BOARD OF REGENTS OF THE NEVADA SYSTEM OF HIGHER EDUCATION, …, priority 2013, dated 2018)
Like-named read-outs stand apart in the source and are kept apart here.

Experiments:
Type in all cases: cell-based, mouse
[1] = tested on: β-galactosidase in CMV-LacZ C2C12 myotubes; experiment: CMV-LacZ secondary screen in C2C12 myotubes (β-Gal stabilizing assay); settings: for CMV-LACZ in Myotubes (β-galactosidase activity relative to DMSO): CMV-LacZ C2C12 myotubes, 96-well format
Method in brief: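 Stable CMV-LacZ C2C12 clone; six-point curve 0.5–40 μM; duplicates.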

[2] = tested on: α7 integrin (LacZ reporter in α7+/LacZ myotubes); experiment: Myotube α7 integrin FDG assay (Burkin assay in myotubes, 96-well); settings: myotubes; for fold induction at 0.5 µM / fold induction at 1 µM / fold induction at 5 µM / fold induction at 10 µM / fold induction at 20 µM / fold induction at 40 µM: Mus musculus, Myotube
[3] = tested on: α7 integrin (LacZ reporter in α7βgal+/− myoblasts); experiment: Myoblast α7+/LacZ integrin FDG assay (Burkin assay in myoblasts, 96-well); settings: α7+/LacZ myoblasts, 96-well; for fold induction at 0.5 µM / fold induction at 1 µM / fold induction at 5 µM / fold induction at 10 µM / fold induction at 20 µM / fold induction at 40 µM: Mus musculus, Myoblast, 48 h

## COCCN(CC(=O)Nc1cccc(C)c1C)C(=O)C1CCN(S(=O)(=O)c2ccccc2)CC1 [MLS002156278-01]
[1]; 5 uM
  CMV-LACZ in Myotubes (β-galactosidase activity relative to DMSO): 0.8694
[1]; 10 uM
  CMV-LACZ in Myotubes (β-galactosidase activity relative to DMSO): 1.096
[1]; 20 uM
  CMV-LACZ in Myotubes (β-galactosidase activity relative to DMSO): 0.9667
[1]; 40 uM
  CMV-LACZ in Myotubes (β-galactosidase activity relative to DMSO): 1.031
[2]; 0.5 uM
  Burkin Assay in Myotubes (signal relative to DMSO): 1.005
[2]; 1 uM
  Burkin Assay in Myotubes (signal relative to DMSO): 0.9637
[2]; 5 uM
  Burkin Assay in Myotubes (signal relative to DMSO): 0.6908
[2]; 10 uM
  Burkin Assay in Myotubes (signal relative to DMSO): 0.9924
[2]; 20 uM
  Burkin Assay in Myotubes (signal relative to DMSO): 0.9719
[2]; 40 uM
  Burkin Assay in Myotubes (signal relative to DMSO): 1.025
[3]; 0.5 uM
  Burkin Assay in Myoblasts, value relative to DMSO: 0.8597
[3]; 1 uM
  Burkin Assay in Myoblasts, value relative to DMSO: 0.9642
[3]; 5 uM
  Burkin Assay in Myoblasts, value relative to DMSO: 1.01
[3]; 10 uM
  Burkin Assay in Myoblasts, value relative to DMSO: 0.9653
[3]; 20 uM
  Burkin Assay in Myoblasts, value relative to DMSO: 0.8604
[3]; 40 uM
  Burkin Assay in Myoblasts, value relative to DMSO: 0.8246

## CNc1nnc(SCC(=O)c2cc(C)n(C3CC3)c2C)s1 [MLS002156485-01]
[1]; 5 uM
  CMV-LACZ in Myotubes (β-galactosidase activity relative to DMSO): 0.9468
[1]; 10 uM
  CMV-LACZ in Myotubes (β-galactosidase activity relative to DMSO): 0.9523
[1]; 20 uM
  CMV-LACZ in Myotubes (β-galactosidase activity relative to DMSO): 1.115
[1]; 40 uM
  CMV-LACZ in Myotubes (β-galactosidase activity relative to DMSO): 0.9483
[2]; 0.5 uM
  Burkin Assay in Myotubes (signal relative to DMSO): 1.0551
[2]; 1 uM
  Burkin Assay in Myotubes (signal relative to DMSO): 0.9807
[2]; 5 uM
  Burkin Assay in Myotubes (signal relative to DMSO): 1.2005
[2]; 10 uM
  Burkin Assay in Myotubes (signal relative to DMSO): 1.0687
[2]; 20 uM
  Burkin Assay in Myotubes (signal relative to DMSO): 1.057
[2]; 40 uM
  Burkin Assay in Myotubes (signal relative to DMSO): 1.156
[3]; 0.5 uM
  Burkin Assay in Myoblasts, value relative to DMSO: 1.059
[3]; 1 uM
  Burkin Assay in Myoblasts, value relative to DMSO: 0.9382
[3]; 5 uM
  Burkin Assay in Myoblasts, value relative to DMSO: 0.9278
[3]; 10 uM
  Burkin Assay in Myoblasts, value relative to DMSO: 0.8752
[3]; 20 uM
  Burkin Assay in Myoblasts, value relative to DMSO: 1.052
[3]; 40 uM
  Burkin Assay in Myoblasts, value relative to DMSO: 1.026

## Cc1ccc(OCC(=O)N2CCN(S(=O)(=O)c3ccc4c(c3)OCCO4)CC2)c(C)c1 [MLS002158881-01]
[1]; Mus musculus, C2C12, read-out: CMV-LACZ in Myotubes, signal relative to DMSO, 5 uM, C2C12 CMV-LacZ myotubes, fold relative to DMSO
  fold induction at 5 µM: 0.792
[1]; Mus musculus, C2C12, read-out: CMV-LACZ in Myotubes, signal relative to DMSO, 10 uM, C2C12 CMV-LacZ myotubes, fold relative to DMSO
  fold induction at 10 µM: 0.827
[1]; Mus musculus, C2C12, read-out: CMV-LACZ in Myotubes, signal relative to DMSO, 20 uM, C2C12 CMV-LacZ myotubes, fold relative to DMSO
  fold induction at 20 µM: 0.864
[1]; Mus musculus, C2C12, read-out: CMV-LACZ in Myotubes, signal relative to DMSO, 40 uM, C2C12 CMV-LacZ myotubes, fold relative to DMSO
  fold induction at 40 µM: 0.81
[2]; 0.5 uM, read-out: Burkin Assay in Myotubes, α7 integrin LacZ reporter signal relative to DMSO
  fold induction at 0.5 µM: 0.896
[2]; 1 uM, read-out: Burkin Assay in Myotubes, α7 integrin LacZ reporter signal relative to DMSO
  fold induction at 1 µM: 0.865
[2]; 5 uM, read-out: Burkin Assay in Myotubes, α7 integrin LacZ reporter signal relative to DMSO
  fold induction at 5 µM: 0.67
[2]; 10 uM, read-out: Burkin Assay in Myotubes, α7 integrin LacZ reporter signal relative to DMSO
  fold induction at 10 µM: 0.773
[2]; 20 uM, read-out: Burkin Assay in Myotubes, α7 integrin LacZ reporter signal relative to DMSO
  fold induction at 20 µM: 1.2
[2]; 40 uM, read-out: Burkin Assay in Myotubes, α7 integrin LacZ reporter signal relative to DMSO
  fold induction at 40 µM: 1
[3]; 0.5 uM, read-out: Burkin Assay in Myoblasts, signal relative to DMSO
  fold induction at 0.5 µM: 0.888
[3]; 1 uM, read-out: Burkin Assay in Myoblasts, signal relative to DMSO
  fold induction at 1 µM: 0.838
[3]; 5 uM, read-out: Burkin Assay in Myoblasts, signal relative to DMSO
  fold induction at 5 µM: 0.989
[3]; 10 uM, read-out: Burkin Assay in Myoblasts, signal relative to DMSO
  fold induction at 10 µM: 1.02
[3]; 20 uM, read-out: Burkin Assay in Myoblasts, signal relative to DMSO
  fold induction at 20 µM: 1.12
[3]; 40 uM, read-out: Burkin Assay in Myoblasts, signal relative to DMSO
  fold induction at 40 µM: 1.21

## CC1CCCCC12NC(=O)N(CC(=O)OCc1cccc(F)c1)C2=O (stereo not shown) [MLS002161350-01]
[1]; 5 uM, C2C12 CMV-LacZ myotubes, fold relative to DMSO
  CMV-LACZ in Myotubes, signal relative to DMSO: 0.906
[1]; 10 uM, C2C12 CMV-LacZ myotubes, fold relative to DMSO
  CMV-LACZ in Myotubes, signal relative to DMSO: 0.9679
[1]; 20 uM, C2C12 CMV-LacZ myotubes, fold relative to DMSO
  CMV-LACZ in Myotubes, signal relative to DMSO: 0.8847
[1]; 40 uM, C2C12 CMV-LacZ myotubes, fold relative to DMSO
  CMV-LACZ in Myotubes, signal relative to DMSO: 1.046
[2]; 0.5 uM
  Burkin Assay in Myotubes, α7 integrin LacZ reporter signal relative to DMSO: 0.9844
[2]; 1 uM
  Burkin Assay in Myotubes, α7 integrin LacZ reporter signal relative to DMSO: 1.177
[2]; 5 uM
  Burkin Assay in Myotubes, α7 integrin LacZ reporter signal relative to DMSO: 0.7783
[2]; 10 uM
  Burkin Assay in Myotubes, α7 integrin LacZ reporter signal relative to DMSO: 0.987
[2]; 20 uM
  Burkin Assay in Myotubes, α7 integrin LacZ reporter signal relative to DMSO: 1.049
[2]; 40 uM
  Burkin Assay in Myotubes, α7 integrin LacZ reporter signal relative to DMSO: 1.116
[3]; 0.5 uM
  Burkin Assay in Myoblasts, signal relative to DMSO: 0.9404
[3]; 1 uM
  Burkin Assay in Myoblasts, signal relative to DMSO: 0.9236
[3]; 5 uM
  Burkin Assay in Myoblasts, signal relative to DMSO: 0.9531
[3]; 10 uM
  Burkin Assay in Myoblasts, signal relative to DMSO: 0.9514
[3]; 20 uM
  Burkin Assay in Myoblasts, signal relative to DMSO: 0.822
[3]; 40 uM
  Burkin Assay in Myoblasts, signal relative to DMSO: 0.8262

## O=C(CSc1nnc(C2CC2)n1C1CC1)c1cccs1 [MLS002161757-01]
[1]; 5 uM
  CMV-LACZ in Myotubes (β-galactosidase activity relative to DMSO): 0.919
[1]; 10 uM
  CMV-LACZ in Myotubes (β-galactosidase activity relative to DMSO): 1.102
[1]; 20 uM
  CMV-LACZ in Myotubes (β-galactosidase activity relative to DMSO): 1.153
[1]; 40 uM
  CMV-LACZ in Myotubes (β-galactosidase activity relative to DMSO): 1.256
[2]; 0.5 uM
  Burkin Assay in Myotubes (signal relative to DMSO): 0.8459
[2]; 1 uM
  Burkin Assay in Myotubes (signal relative to DMSO): 1.07
[2]; 5 uM
  Burkin Assay in Myotubes (signal relative to DMSO): 1.092
[2]; 10 uM
  Burkin Assay in Myotubes (signal relative to DMSO): 1.06
[2]; 20 uM
  Burkin Assay in Myotubes (signal relative to DMSO): 0.9795
[2]; 40 uM
  Burkin Assay in Myotubes (signal relative to DMSO): 1.146
[3]; 0.5 uM
  Burkin Assay in Myoblasts, value relative to DMSO: 0.9614
[3]; 1 uM
  Burkin Assay in Myoblasts, value relative to DMSO: 0.892
[3]; 5 uM
  Burkin Assay in Myoblasts, value relative to DMSO: 0.9113
[3]; 10 uM
  Burkin Assay in Myoblasts, value relative to DMSO: 0.9135
[3]; 20 uM
  Burkin Assay in Myoblasts, value relative to DMSO: 1.009
[3]; 40 uM
  Burkin Assay in Myoblasts, value relative to DMSO: 1.151

## COCc1c(C(=O)OCc2nc3ccsc3c(=O)[nH]2)oc2ccccc12 [MLS002163386-01]
[1]; 5 uM
  CMV-LACZ in Myotubes (β-galactosidase activity relative to DMSO): 0.9749
[1]; 10 uM
  CMV-LACZ in Myotubes (β-galactosidase activity relative to DMSO): 1.196
[1]; 20 uM
  CMV-LACZ in Myotubes (β-galactosidase activity relative to DMSO): 0.9465
[1]; 40 uM
  CMV-LACZ in Myotubes (β-galactosidase activity relative to DMSO): 1.066
[2]; 0.5 uM
  Burkin Assay in Myotubes (signal relative to DMSO): 1.104
[2]; 1 uM
  Burkin Assay in Myotubes (signal relative to DMSO): 1.048
[2]; 5 uM
  Burkin Assay in Myotubes (signal relative to DMSO): 1.112
[2]; 10 uM
  Burkin Assay in Myotubes (signal relative to DMSO): 1.064
[2]; 20 uM
  Burkin Assay in Myotubes (signal relative to DMSO): 1.064
[2]; 40 uM
  Burkin Assay in Myotubes (signal relative to DMSO): 1.02
[3]; 0.5 uM
  Burkin Assay in Myoblasts, value relative to DMSO: 1.0508
[3]; 1 uM
  Burkin Assay in Myoblasts, value relative to DMSO: 0.9023
[3]; 5 uM
  Burkin Assay in Myoblasts, value relative to DMSO: 1.034
[3]; 10 uM
  Burkin Assay in Myoblasts, value relative to DMSO: 0.888
[3]; 20 uM
  Burkin Assay in Myoblasts, value relative to DMSO: 1.014
[3]; 40 uM
  Burkin Assay in Myoblasts, value relative to DMSO: 0.9388

## O=C(Nc1ccc(S(=O)(=O)Nc2nccs2)cc1)c1ccccc1OC(F)F [MLS002164687-01]
[1]; 5 uM
  CMV-LACZ in Myotubes (β-galactosidase activity relative to DMSO): 0.7625
[1]; 10 uM
  CMV-LACZ in Myotubes (β-galactosidase activity relative to DMSO): 0.922
[1]; 20 uM
  CMV-LACZ in Myotubes (β-galactosidase activity relative to DMSO): 0.968
[1]; 40 uM
  CMV-LACZ in Myotubes (β-galactosidase activity relative to DMSO): 1.113
[2]; 0.5 uM, read-out: Burkin Assay in Myotubes (signal relative to DMSO)
  fold induction at 0.5 µM: 0.853
[2]; 1 uM, read-out: Burkin Assay in Myotubes (signal relative to DMSO)
  fold induction at 1 µM: 1
[2]; 5 uM, read-out: Burkin Assay in Myotubes (signal relative to DMSO)
  fold induction at 5 µM: 1.23
[2]; 10 uM, read-out: Burkin Assay in Myotubes (signal relative to DMSO)
  fold induction at 10 µM: 1.37
[2]; 20 uM, read-out: Burkin Assay in Myotubes (signal relative to DMSO)
  fold induction at 20 µM: 1.02
[2]; 40 uM, read-out: Burkin Assay in Myotubes (signal relative to DMSO)
  fold induction at 40 µM: 1.06
[3]; 0.5 uM, read-out: Burkin Assay in Myoblasts, value relative to DMSO
  fold induction at 0.5 µM: 0.775
[3]; 1 uM, read-out: Burkin Assay in Myoblasts, value relative to DMSO
  fold induction at 1 µM: 0.819
[3]; 5 uM, read-out: Burkin Assay in Myoblasts, value relative to DMSO
  fold induction at 5 µM: 0.695
[3]; 10 uM, read-out: Burkin Assay in Myoblasts, value relative to DMSO
  fold induction at 10 µM: 0.849
[3]; 20 uM, read-out: Burkin Assay in Myoblasts, value relative to DMSO
  fold induction at 20 µM: 0.838
[3]; 40 uM, read-out: Burkin Assay in Myoblasts, value relative to DMSO
  fold induction at 40 µM: 0.819
